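Method: 48-hour compound exposure of cells in 96-well plates, five concentrations, linear interpolation of endpoints. GI50: concentration for 50% inhibition of growth.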 Calls of active or inactive are those of the source. No stated cut-off is given here; in the data, active = GI50 up to about 1.1 µM and inactive = higher.
Assays:
Assay in all cases: NCI anticancer screen, dose series, 48 h
HL-60 = system: HL-60
OVCAR-8 = system: OVCAR-8
MDA-MB-231 = system: MDA-MB-231
HCC 2998 = system: HCC 2998
NCI-H522 = system: NCI-H522
UACC-257 = system: UACC-257
SF-295 = system: SF-295
DU-145 = system: DU-145
HT-29 = system: HT-29
CCRF-CEM = system: CCRF-CEM
SF-268 = system: SF-268
NCI-H460 = system: NCI-H460
ACHN = system: ACHN
Hs-578T = system: Hs-578T
SK-MEL-5 = system: SK-MEL-5
OVCAR-3 = system: OVCAR-3
MCF7 = system: MCF7
SNB-19 = system: SNB-19
TK-10 = system: TK-10
IGROV-1 = system: IGROV-1

Measured: GI50

O=C(c1ccco1)N(C(=O)N1CCN(c2ccccc2)CC1)S(=O)(=O)c1ccccc1
inactive: HL-60 21.2 µM | OVCAR-8 32.6 µM | MDA-MB-231 36.9 µM | HCC 2998 48.4 µM | NCI-H522 18.3 µM | UACC-257 32 µM | SF-295 43.6 µM | DU-145 43.7 µM | HT-29 35.8 µM | CCRF-CEM 27 µM | SF-268 37.7 µM | NCI-H460 32.3 µM | ACHN 24.7 µM | Hs-578T 32 µM | SK-MEL-5 24.4 µM | OVCAR-3 26.9 µM | MCF7 29.4 µM | SNB-19 27.7 µM | TK-10 33.3 µM

C/C(CC1SCCCS1)=C(/C)CC1SCCCS1
inactive: HL-60 > 100 µM | IGROV-1 > 100 µM | OVCAR-8 > 100 µM | MDA-MB-231 > 100 µM | HCC 2998 > 100 µM | SF-295 > 100 µM | DU-145 > 100 µM | HT-29 > 100 µM | CCRF-CEM > 100 µM | SF-268 > 100 µM | NCI-H460 > 100 µM | ACHN > 100 µM | Hs-578T > 100 µM | SK-MEL-5 > 100 µM | OVCAR-3 > 100 µM | MCF7 > 100 µM | SNB-19 > 100 µM | TK-10 > 100 µM

O=C(O)c1nn[nH]c1S
inactive: HL-60 > 100 µM | IGROV-1 > 100 µM | OVCAR-8 > 100 µM | MDA-MB-231 > 100 µM | HCC 2998 > 100 µM | NCI-H522 > 100 µM | UACC-257 > 100 µM | SF-295 > 100 µM | DU-145 > 100 µM | HT-29 > 100 µM | CCRF-CEM > 100 µM | SF-268 > 100 µM | NCI-H460 > 100 µM | ACHN > 100 µM | Hs-578T > 100 µM | SK-MEL-5 > 100 µM | OVCAR-3 > 100 µM | MCF7 > 100 µM | SNB-19 > 100 µM

Cc1ccc(-n2cc(-c3ccc(Cl)cc3)c(C#N)c2N)cc1
inactive: HL-60 4.1 µM | IGROV-1 15.9 µM | OVCAR-8 15.9 µM | MDA-MB-231 14.7 µM | HCC 2998 14.9 µM | NCI-H522 12.1 µM | UACC-257 14.8 µM | SF-295 17.5 µM | DU-145 25.2 µM | HT-29 14 µM | CCRF-CEM 15.5 µM | SF-268 18.7 µM | NCI-H460 15.1 µM | ACHN 18.7 µM | Hs-578T 2.38 µM | SK-MEL-5 16.1 µM | OVCAR-3 15.6 µM | MCF7 14.6 µM | SNB-19 17.3 µM | TK-10 14.7 µM

N#Cc1c(Cl)cc(C#N)n2c1nc1ccccc12
inactive: HL-60 1.18 µM | IGROV-1 14.6 µM | OVCAR-8 5.92 µM | MDA-MB-231 8.87 µM | HCC 2998 21.2 µM | NCI-H522 2.42 µM | UACC-257 14.9 µM | SF-295 15.3 µM | DU-145 20.8 µM | HT-29 6.87 µM | CCRF-CEM 1.3 µM | SF-268 5.6 µM | NCI-H460 14.9 µM | ACHN 15.2 µM | Hs-578T 25.8 µM | SK-MEL-5 15.5 µM | OVCAR-3 5.28 µM | MCF7 9.2 µM | SNB-19 > 53.1 µM | TK-10 13.2 µM

COc1ccc2cc1Oc1ccc(cc1)C(Sc1ccccc1)CCOC(=O)CC2 (stereo not drawn)
inactive: HL-60 28.1 µM | IGROV-1 > 100 µM | OVCAR-8 > 100 µM | MDA-MB-231 54 µM | HCC 2998 > 100 µM | NCI-H522 > 100 µM | UACC-257 > 100 µM | SF-295 > 100 µM | DU-145 > 100 µM | HT-29 > 100 µM | CCRF-CEM > 100 µM | SF-268 > 100 µM | ACHN > 100 µM | Hs-578T > 100 µM | SK-MEL-5 63.1 µM | OVCAR-3 > 100 µM | MCF7 > 100 µM | SNB-19 > 100 µM | TK-10 > 100 µM

Cc1cc2c(cc1-c1cc3c(cc1C)C(C(C)C)=C(O)C(=O)/C3=C\NCC1CCCN3CCCCC13)/C(=C/NCC1CCCN3CCCCC13)C(=O)C(O)=C2C(C)C (stereo not drawn)
inactive: HL-60 2.97 µM | IGROV-1 5.97 µM | OVCAR-8 3.61 µM | MDA-MB-231 4.16 µM | HCC 2998 17.5 µM | NCI-H522 2.84 µM | UACC-257 15.3 µM | SF-295 6.27 µM | DU-145 11 µM | HT-29 2.47 µM | CCRF-CEM 2.83 µM | SF-268 3.85 µM | NCI-H460 5.14 µM | ACHN 3.81 µM | Hs-578T 10.2 µM | SK-MEL-5 6.75 µM | OVCAR-3 3.01 µM | MCF7 12.4 µM | SNB-19 7.98 µM | TK-10 8.36 µM

COc1cc(C(=O)O)c(-c2cc3c(cc2C=O)OCO3)c(OC)c1OC
inactive: HL-60 > 10 µM | IGROV-1 > 10 µM | OVCAR-8 > 10 µM | MDA-MB-231 > 10 µM | HCC 2998 > 10 µM | NCI-H522 > 10 µM | UACC-257 > 10 µM | SF-295 4.82 µM | DU-145 > 10 µM | HT-29 > 10 µM | CCRF-CEM > 10 µM | SF-268 > 10 µM | ACHN > 10 µM | Hs-578T > 10 µM | SK-MEL-5 > 10 µM | OVCAR-3 > 10 µM | MCF7 > 10 µM | SNB-19 > 10 µM | TK-10 > 10 µM

N#Cc1c(N2CCC(O)C2)c2ccccc2n2c1nc1ccccc12 (stereo not drawn)
inactive: HL-60 > 100 µM | IGROV-1 69.2 µM | OVCAR-8 45.7 µM | MDA-MB-231 19.4 µM | HCC 2998 > 100 µM | NCI-H522 47.5 µM | UACC-257 > 100 µM | SF-295 31 µM | DU-145 > 100 µM | HT-29 > 100 µM | CCRF-CEM > 100 µM | SF-268 43.7 µM | NCI-H460 > 100 µM | ACHN 18.2 µM | Hs-578T 29.2 µM | SK-MEL-5 > 100 µM | OVCAR-3 > 100 µM | MCF7 > 100 µM | SNB-19 32.1 µM | TK-10 51.1 µM

COc1ccc(C(=O)Cn2c(C(=O)/C=C/c3ccco3)nc3ccccc32)cc1
inactive: HL-60 22.1 µM | IGROV-1 44.1 µM | MDA-MB-231 28.7 µM | HCC 2998 16.6 µM | UACC-257 27.4 µM | DU-145 38.5 µM | HT-29 36.6 µM | CCRF-CEM 25.1 µM | SF-268 24.5 µM | NCI-H460 23.5 µM | ACHN 42.8 µM | Hs-578T 25.3 µM | SK-MEL-5 26.7 µM | OVCAR-3 24.9 µM | MCF7 19.4 µM | SNB-19 39.2 µM | TK-10 44.8 µM

CC(=S)NC=C(C(N)=O)C(N)=O
inactive: HL-60 > 100 µM | IGROV-1 > 100 µM | OVCAR-8 > 100 µM | MDA-MB-231 > 100 µM | HCC 2998 > 100 µM | NCI-H522 > 100 µM | UACC-257 > 100 µM | SF-295 > 100 µM | DU-145 > 100 µM | HT-29 > 100 µM | CCRF-CEM > 100 µM | SF-268 > 100 µM | ACHN > 100 µM | Hs-578T > 100 µM | SK-MEL-5 > 100 µM | OVCAR-3 > 100 µM | MCF7 > 100 µM

COC(=O)/N=[N+](\[O-])C(c1ccccc1)c1ccccc1
inactive: HL-60 > 100 µM | IGROV-1 61.8 µM | OVCAR-8 > 100 µM | MDA-MB-231 > 100 µM | HCC 2998 > 100 µM | NCI-H522 > 100 µM | UACC-257 28.4 µM | DU-145 42.6 µM | HT-29 > 100 µM | CCRF-CEM 82 µM | SF-268 > 100 µM | NCI-H460 > 100 µM | Hs-578T > 100 µM | SK-MEL-5 41.9 µM | OVCAR-3 98.9 µM | MCF7 > 100 µM | SNB-19 > 100 µM | TK-10 > 100 µM

O=S1(=O)N=C(NCc2c[nH]c3ccccc23)N(c2ccccc2)c2ccncc21
inactive: HL-60 > 100 µM | OVCAR-8 27.4 µM | MDA-MB-231 > 100 µM | HCC 2998 > 100 µM | NCI-H522 25.1 µM | UACC-257 > 100 µM | SF-295 > 100 µM | DU-145 > 100 µM | HT-29 > 100 µM | CCRF-CEM > 100 µM | SF-268 27.5 µM | NCI-H460 > 100 µM | ACHN > 100 µM | Hs-578T 31.7 µM | SK-MEL-5 > 100 µM | OVCAR-3 > 100 µM | MCF7 > 100 µM | SNB-19 34.9 µM | TK-10 > 100 µM

CNC(=S)/N=c1/sc(NC)nc2sc3c(c12)CCCC3
inactive: HL-60 > 100 µM | IGROV-1 > 100 µM | MDA-MB-231 51.9 µM | HCC 2998 > 100 µM | NCI-H522 36.4 µM | UACC-257 > 100 µM | SF-295 30.8 µM | DU-145 > 100 µM | HT-29 > 100 µM | CCRF-CEM > 100 µM | SF-268 34.6 µM | NCI-H460 > 100 µM | ACHN > 100 µM | Hs-578T 29 µM | SK-MEL-5 > 100 µM | OVCAR-3 > 100 µM | MCF7 > 100 µM | SNB-19 35.9 µM | TK-10 > 100 µM

CCCCCCCCCCCCC(O)C(=O)O (stereo not drawn)
inactive: HL-60 98.6 µM | IGROV-1 > 100 µM | OVCAR-8 > 100 µM | MDA-MB-231 > 100 µM | HCC 2998 > 100 µM | NCI-H522 > 100 µM | UACC-257 > 100 µM | SF-295 > 100 µM | DU-145 > 100 µM | HT-29 > 100 µM | CCRF-CEM > 100 µM | NCI-H460 > 100 µM | ACHN > 100 µM | Hs-578T > 100 µM | SK-MEL-5 > 100 µM | OVCAR-3 > 100 µM | MCF7 > 100 µM | SNB-19 > 100 µM | TK-10 > 100 µM

From ChEMBL document CHEMBL1201862, “PubChem BioAssay data set” (2004)
